Experimental data as given in paper PMC11864945 (Frontiers in Pharmacology, 2025).
Where two headings read alike, the source gives them in different places.

Assays:
[1] = stock solution in DMF, −20°C
Method: Individual stock solutions of PYR, PRA, FBT, FEN and OXF were prepared for standards and quality control samples in DMF at 1 mg/mL. IS stock solution was also prepared in DMF at 400 μg/mL. The mixed working solutions were obtained by mixing the stock solution in different volumes and then performing appropriate dilution in methanol: water (50:50, V/V). The IS working solution of 200 ng/mL was also prepared with DMF from the primary stock solution. […] The working solutions for the analytes and IS were stored at 4°C and brought to room temperature before use.
Stability experiments were conducted in working solutions of the analytes and IS for short term stability at 4°C and stock solutions for long term stability at −20°C, respectively. Peak area ratio responses (Analytes/IS) of stored solutions were compared with those of freshly prepared solutions. The acceptance criterion was ±10.0% deviation when comparing the values of fresh solutions.

[2] = beagle, dog, in vivo; for AUC0–30 / AUC0–inf / Cmax / Kel (elimination rate constant) / Tmax / t1/2 (elimination half–life): po
Method: (§1) Adaptive feeding and observation were carried out for 7 days before the bioequivalence study. Physical examination, blood routine and blood biochemical tests were performed the day before the trial to ensure the health of the dogs. […] The subjects were orally administered a single dose of test or reference formuations with 100 mL of water with a washout period of 2 weeks. Blood samples were collected into heparinized tubes at 0.00 (pre–dose), 0.17, 0.33, 0.67, 1.00, 1.50, 2.00, 2.50, 3.00, 4.00, 5.00, 6.00, 7.00, 8.00, 9.00, 10.00, 11.00, 12.00, 14.00, 24.00 and 30.00 h after oral administration. […] The number of blood collections for drug analysis was 21 samples in each study period. The collected blood samples were centrifuged in a pre–cooled centrifuge at 2,150 g for 10 min, and the separated plasma was transferred to a clean centrifuge tube and frozen in a −80°C refrigerator until analysis.
(§2) The pharmacokinetic parameters for the analytes were evaluated by non–compartmental analysis using Phoenix WinNonlin software version 8.1 (Certara Corporation, Radnor, PA, United States). The maximum plasma concentration (Cmax), the area under the plasma concentration-time curve from time zero to the last sampling time (AUC0–30), the area under the plasma concentration-time curve from time zero to infinity (AUC0–inf), as the primary target, and their geometric mean ratios (test/reference) using log transformed data were assessed to determine whether the formulations were pharmacokinetically equivalent.
(§3) The study was conducted as an open label, balanced, randomized, crossover, two–treatment, two–period, two–sequence and single–dose design to compare the bioavailability of PYR, PRA, FBT, FEN and OXF between two products in 38 healthy beagle dogs. Each subject received a tablet from the test product (Self–developed preparation) and a tablet from reference product (Drontal® Plus Flavor) under fasting conditions with a washout period of 2 weeks.

[3] = Stability of the analytes in beagle dog plasma (bench top, refrigerator, freeze–thaw, autosampler, short and long term storage); format: physicochemical; conditions: for Mean stability sample ±SD: n = 5
Method: Stability experiments were conducted in working solutions of the analytes and IS for short term stability at 4°C and stock solutions for long term stability at −20°C, respectively. Peak area ratio responses (Analytes/IS) of stored solutions were compared with those of freshly prepared solutions. The acceptance criterion was ±10.0% deviation when comparing the values of fresh solutions. The stabilities of the analytes in beagle dog plasma were evaluated by analyzing five replicates at LQC and HQC levels. Types of stabilities were following as: bench top stability (room temperature), refrigerator stability (4°C), autosampler stability for processed samples (6°C), freeze–thaw stability (−80°C), short term stability (−20°C) and long term (–80°C) storage stability.

[4] = 20 healthy beagle dogs, identical dose strength, ref Klausz et al., 2015, cited from earlier work
in vivo = conditions: beagle, dog, po; for AUC(0-t): AUC0–30; for AUC(0-inf): AUC0–inf; for k el: Kel (elimination rate constant); for half-life: t1/2 (elimination half–life)
Method: as §1, §2, §3

[5] = Bioequivalence / pharmacokinetic study of compound febantel tablets after single oral dose, plasma levels by UPLC–MS/MS; conditions: beagle, dog, 38 beagle dogs, fasting, mean ± SD; for AUC(0-inf): AUC0–inf; for k el: Kel (elimination rate constant); for half-life: t1/2 (elimination half–life)
Method: as §1, §2, §3

[6] = autosampler, 6°C, 55 h, processed plasma samples, HQC
[7] = autosampler, 6°C, 55 h, processed plasma samples, LQC
[8] = bench top, room temperature, 8 h, dog plasma, HQC (added 180 ng/mL PYR/OXF, 675 PRA, 90 FBT, 450 FEN)
[9] = bench top, room temperature, 8 h, dog plasma, HQC, % of nominal concentration
[10] = bench top, room temperature, 8 h, dog plasma, LQC (added 12 ng/mL PYR/OXF, 45 PRA, 6 FBT, 30 FEN)
[11] = bench top, room temperature, 8 h, dog plasma, LQC, % of nominal concentration
[12] = freeze–thaw after 3rd cycle at −80°C, dog plasma, HQC
[13] = freeze–thaw after 3rd cycle at −80°C, dog plasma, LQC
[14] = long term, −80°C, 120 days, dog plasma, HQC
[15] = long term, −80°C, 120 days, dog plasma, LQC
[16] = refrigerator, 4°C, 30 h, dog plasma, HQC
[17] = refrigerator, 4°C, 30 h, dog plasma, LQC
[18] = short term, −20°C, 48 h, dog plasma, HQC
[19] = short term, −20°C, 48 h, dog plasma, LQC
[20] = reference product (R), single oral tablet
[21] = test product (T), single oral tablet

Row | Compound | Mean stability sample ±SD [3, 6] | Accuracy [3, 7] | Mean stability sample ±SD [3, 7] | Mean stability sample ±SD [3, 8] | Accuracy [3, 9] | Mean stability sample ±SD [3, 10] | Accuracy [3, 11] | Accuracy [3, 12] | Mean stability sample ±SD [3, 12] | Accuracy [3, 13] | Mean stability sample ±SD [3, 13] | Accuracy [3, 14] | Mean stability sample ±SD [3, 14] | Accuracy [3, 15] | Mean stability sample ±SD [3, 15] | Accuracy [3, 16] | Mean stability sample ±SD [3, 16] | Accuracy [3, 17] | Mean stability sample ±SD [3, 17] | Accuracy [3, 18] | also measured
1 | [2H]C([2H])([2H])OC(=O)Nc1nc2ccc(Sc3ccccc3)cc2[nH]1 [IS, Fenbendazole–D3] | – | – | – | – | – | – | – | – | – | – | – | – | – | – | – | – | – | – | – | – | Long–term stability of stock solution (time remained stable) [1]: 104 days
2 | COC(=O)Nc1nc2ccc(Sc3ccccc3)cc2[nH]1 [Fenbendazole, fenbendazole] | 457.91 ± 24.20 ng/mL | 100.87% | 30.26 ± 0.97 ng/mL | 412.09 ± 6.95 ng/mL | 91.58% | 28.75 ± 0.77 ng/mL | 95.83% | 99.49% | 447.72 ± 13.36 ng/mL | 98.82% | 29.65 ± 1.05 ng/mL | 101.31% | 455.87 ± 11.17 ng/mL | 102.31% | 30.69 ± 0.89 ng/mL | 97.40% | 438.32 ± 14.73 ng/mL | 97.04% | 29.11 ± 1.92 ng/mL | 104.58% | AUC0–30 [2]: 1,689.33 ± 881.68 h. ng/mL; AUC0–inf [2]: 1,893.90 ± 934.66 h ng/mL; Cmax [2]: 212.35 ± 104.41 ng/mL; Kel (elimination rate constant) [2]: 0.15 ± 0.07 h⁻¹; Tmax [2]: 5.20 ± 3.10 h; t1/2 (elimination half–life) [2]: 5.76 ± 3.70 h; Mean stability sample ±SD [3, 18]: 470.60 ± 13.89 ng/mL; Accuracy [3, 19]: 103.13%; Mean stability sample ±SD [3, 19]: 30.94 ± 2.18 ng/mL; AUC(0-t) (in vivo): 1440 ng·h/mL; AUC(0-inf) (in vivo): 1680 ng·h/mL; k el (in vivo): 4.44e-05 s⁻¹; Tmax (in vivo): 5 ± 3.56 h; half-life (in vivo): 6.96 ± 8.33 h
3 | O=C(C1CCCCC1)N1CC(=O)N2CCc3ccccc3C2C1 (centres unmarked) [Praziquantel, praziquantel] | 729.27 ± 27.29 ng/mL | 103.68% | 46.65 ± 1.23 ng/mL | 645.65 ± 11.69 ng/mL | 95.65% | 44.28 ± 0.95 ng/mL | 98.41% | 99.19% | 669.52 ± 14.97 ng/mL | 98.12% | 44.15 ± 2.42 ng/mL | 91.14% | 615.17 ± 19.69 ng/mL | 94.44% | 42.50 ± 4.13 ng/mL | 96.95% | 654.44 ± 29.69 ng/mL | 98.16% | 44.17 ± 3.20 ng/mL | 108.18% | GMR (Test/Reference) of AUC0–30 [2]: 101.83%; GMR (Test/Reference) of AUC0–inf [2]: 101.79%; GMR (Test/Reference) of Cmax [2]: 97.63%; AUC0–30 [2]: 3,267.67 ± 1827.15 h. ng/mL; AUC0–inf [2]: 3,317.89 ± 1838.60 h ng/mL; Cmax [2]: 957.04 ± 537.42 ng/mL; Kel (elimination rate constant) [2]: 0.45 ± 0.12 h⁻¹; Tmax [2]: 1.48 ± 0.67 h; t1/2 (elimination half–life) [2]: 1.65 ± 0.46 h; Accuracy [3, 6]: 108.04%; Mean stability sample ±SD [3, 18]: 730.20 ± 19.11 ng/mL; Accuracy [3, 19]: 100.34%; Mean stability sample ±SD [3, 19]: 45.15 ± 3.68 ng/mL; AUC(0-t) (in vivo): 3320 ng·h/mL; AUC(0-inf) (in vivo): 3370 ng·h/mL; k el (in vivo): 0.000122 s⁻¹; Tmax (in vivo): 1.45 ± 1.05 h; half-life (in vivo): 1.66 ± 0.41 h

Now from value to compound, other results behind:

Row | Mean stability sample ±SD [3, 6] | Accuracy [3, 7] | Mean stability sample ±SD [3, 7] | Mean stability sample ±SD [3, 8] | Accuracy [3, 9] | Mean stability sample ±SD [3, 10] | Accuracy [3, 11] | Accuracy [3, 12] | Mean stability sample ±SD [3, 12] | Accuracy [3, 13] | Mean stability sample ±SD [3, 13] | Accuracy [3, 14] | Mean stability sample ±SD [3, 14] | Accuracy [3, 15] | Mean stability sample ±SD [3, 15] | Accuracy [3, 16] | Mean stability sample ±SD [3, 16] | Accuracy [3, 17] | Mean stability sample ±SD [3, 17] | Accuracy [3, 18] | Compound | also measured
4 | 194.53 ± 3.27 ng/mL | 107.25% | 12.87 ± 0.28 ng/mL | 163.22 ± 1.45 ng/mL | 90.68% | 11.30 ± 0.66 ng/mL | 94.15% | 94.84% | 170.71 ± 4.98 ng/mL | 92.15% | 11.06 ± 0.55 ng/mL | 97.25% | 175.05 ± 5.76 ng/mL | 88.57% | 10.63 ± 0.11 ng/mL | 97.21% | 174.99 ± 6.96 ng/mL | 97.18% | 11.66 ± 0.93 ng/mL | 107.76% | CN1CCCN=C1/C=C/c1cccs1 [Pyrantel, pyrantel] | GMR (Test/Reference) of AUC0–30 [2]: 110.18%; GMR (Test/Reference) of AUC0–inf [2]: 111.84%; GMR (Test/Reference) of Cmax [2]: 112.68%; AUC0–30 [2]: 378.04 ± 102.58 ng·h/mL; AUC0–inf [2]: 429.16 ± 117.30 ng·h/mL; Cmax [2]: 69.17 ± 21.12 ng/mL; Kel (elimination rate constant) [2]: 0.20 ± 0.08 h⁻¹; Tmax [2]: 2.87 ± 1.06 h; t1/2 (elimination half–life) [2]: 4.87 ± 4.38 h; Accuracy [3, 6]: 108.07%; Mean stability sample ±SD [3, 18]: 193.96 ± 8.82 ng/mL; Accuracy [3, 19]: 100.41%; Mean stability sample ±SD [3, 19]: 12.05 ± 0.92 ng/mL; Cmax ([4]; reference products): 81.1 ng/mL; Cmax ([4]; test products): 78.5 ng/mL; AUC(0-t) (in vivo): 423 ± 140 ng·h/mL; AUC(0-inf) (in vivo): 489 ± 186 ng·h/mL; k el (in vivo): 5.28e-05 s⁻¹; Tmax (in vivo): 3.08 ± 0.98 h; half-life (in vivo): 4.27 ± 2.03 h
5 | 192.72 ± 8.41 ng/mL | 106.85% | 12.82 ± 0.85 ng/mL | 162.16 ± 2.99 ng/mL | 90.09% | 12.08 ± 1.02 ng/mL | 100.65% | 97.23% | 175.01 ± 5.08 ng/mL | 100.97% | 12.12 ± 0.84 ng/mL | 97.64% | 175.76 ± 5.23 ng/mL | 93.96% | 11.28 ± 0.62 ng/mL | 96.84% | 174.31 ± 5.37 ng/mL | 95.50% | 11.46 ± 0.74 ng/mL | 105.41% | COC(=O)Nc1nc2ccc([S+]([O-])c3ccccc3)cc2[nH]1 (centres unmarked) [Qxfendazole, oxfendazole] | Accuracy [3, 6]: 107.07%; Mean stability sample ±SD [3, 18]: 189.73 ± 8.17 ng/mL; Accuracy [3, 19]: 98.29%; Mean stability sample ±SD [3, 19]: 11.80 ± 0.79 ng/mL; AUC(0-t) ([5]; AUC0–30, reference product (R), single oral tablet): 2100 ng·h/mL; AUC(0-t) ([5]; AUC0–30, test product (T), single oral tablet): 1790 ng·h/mL; AUC(0-inf) [5, 20]: 2550 ng·h/mL; AUC(0-inf) [5, 21]: 1910 ng·h/mL; Cmax ([5]; reference product (R, Drontal Plus), single oral tablet): 224 ± 112 ng/mL; Cmax ([5]; test product (T), single oral tablet (150 mg FBT, 144 mg pyrantel pamoate, 50 mg PRA)): 184 ± 95.7 ng/mL; k el [5, 20]: 6.11e-05 s⁻¹; k el [5, 21]: 6.67e-05 s⁻¹; Tmax [5, 20]: 6.97 ± 3.47 h; Tmax [5, 21]: 7.08 ± 2.65 h; half-life [5, 20]: 4.17 ± 2.45 h; half-life [5, 21]: 3.83 ± 3.03 h
